In patent US11000627B2, “Treatment of implants with phosphonic acid compounds” (Nano Bridging Molecules SA, priority 2016, dated 2021):
Marks after values point to notes of the source that are not given here.

Tests used:
[1] = XPS phosphorus over metal ratio on ceramic dental implants; assay type: physicochemical; conditions: sonicated 70° C. 60 min, Metal = Al2s + Zr3d + Y3d
Procedure: A ceramic dental implant (alumina toughened zirconia, yttria stabilized; length 11.0 mm, diameter 3.8 mm) was provided with a smooth surface. The dental implant was immersed in 50 ml of a 2% (v/v) aqueous solution of deconex 15 PF-x (which is a phosphate free, potassium hydroxide based standard cleaning agent). The solution was placed in an ultrasonic bath (output frequency 30 kHz) and sonicated at 70° C. for 15 min. This step was repeated a second time. The implant was removed from the cleaning agent solution and rinsed with water as follows: 2 times with 50 ml, swirling at room temperature; 3 times with 50 ml, sonicating for 2 min at 70° C. The implant was then placed into 15 ml of a 0.7 mM aqueous solution of 1,1,3,3-propane tetraphosphonic acid. The solution was placed in the ultrasonic bath and sonicated at 70° C. for 60 min. The implant was rinsed with water as follows: 1 time with 10 ml, swirling at room temperature; 2 times with 10 ml, sonicating for 2 min at 65° C.; 1 time with 10 ml, swirling at room temperature. The dental implant was dried in a desiccator over P2O5 and under vacuum (ca 20 mbar) for at least 3 hours.
Following the surface treatment with one phosphonic acid compound as described in Examples 1 to 7 the samples were analyzed by X-ray photoelectron spectroscopy (XPS). XPS analyses were performed on an Axis Ultra spectrometer from Kratos (Kratos, Manchester, U.K.) equipped with a concentric hemispherical analyzer and using a monochromatized aluminum anode X-ray source (Al Kα1,2 1486.6 eV, full width at half maximum, fwhm=0.85 eV, 15 kV, 150 W). The samples were investigated under ultrahigh vacuum conditions: 10^−8-10^−7 Pa. Spectra were taken at a 90° takeoff angle with respect to the surface. A sample area of 300×700 μm^2 or 700×700 μm^2 was analyzed with a pass energy of 80.0 eV for survey scans. The spectrometer was calibrated by using Cu 2p3/2 (932.7 eV) and Au 4f7/2 (84.0 eV) signals. Surface sensitivity factors used to determine the atomic concentrations were those of the instrument. Spectra were peak fitted after background subtraction by assuming a Gaussian/Lorentzian (90-70/10-30) peak shape. All peaks between 0 eV to 1200 eV were inspected.
The phosphorus over metal ratio (“Phosphorus/Metal”) was calculated dividing the % atomic concentration of phosphorus by the sum of the % atomic concentrations of all metals expected in the analyzed sample.
Four ceramic dental implants (alumina toughened zirconia, yttria stabilized; length 11.0 mm, diameter 3.8 mm) were provided with a smooth surface. The dental implants were immersed in 300 ml of a 2% (v/v) aqueous solution of deconex 15 PF-x (which is a phosphate free, potassium hydroxide based standard cleaning agent). […] The samples were analyzed by X-ray photoelectron spectroscopy (XPS). […]

[2] = XPS phosphorus over metal ratio on Titanium grade 4 cylinders; assay type: physicochemical; conditions: 0.7 mM, Metal = Ti2p
Procedure: Two Titanium grade 4 cylinders (bulk composition atomic concentration Titanium 100%; length 6.0 mm, diameter 2.4 mm) were provided with a roughened surface, produced by sand blasting and acid etching according to industry standards. The cylinders were immersed in 6 ml of a 2% (v/v) aqueous solution of deconex 15 PF-x (which is a phosphate free, potassium hydroxide based standard cleaning agent). The solution was placed in an ultrasonic bath (output frequency 30 kHz) and sonicated at 65° C. for 15 min. The cylinders were removed from the cleaning agent solution and rinsed with water as follows: 2 times with 10 ml, swirling at room temperature; 4 times with 10 ml, sonicating for 2 min at 65° C.; 1 time with 10 ml, swirling at room temperature. The cylinders were then placed into 6 ml of a 0.7 mM aqueous solution of 1,1,3,3-propane tetraphosphonic acid. The solution was placed in the ultrasonic bath and sonicated at 65° C. for 15 min. The cylinders were rinsed with water as follows: 2 times with 10 ml, swirling at room temperature; 1 time with 10 ml, sonicating for 2 min at 65° C.; 1 time with 10 ml, swirling at room temperature. The cylinders were dried in a desiccator over P2O5 and under vacuum (ca 20 mbar) for at least 3 hours.
Two Titanium grade 4 cylinders (bulk composition atomic concentration Titanium 100%; length 6.0 mm, diameter 2.4 mm) were provided with a roughened surface, produced by sand blasting and acid etching according to industry standards. The cylinders were immersed in 6 ml of a 2% (v/v) aqueous solution of deconex 15 PF-x (which is a phosphate free, potassium hydroxide based standard cleaning agent). The solution was placed in an ultrasonic bath (output frequency 30 kHz) and sonicated at room temperature for 15 min. The cylinders were removed from the cleaning agent solution and rinsed with water as follows: 2 times with 10 ml, swirling at room temperature; 4 times with 10 ml, sonicating for 2 min at room temperature; 1 time with 10 ml, swirling at room temperature. The cylinders were then placed into 6 ml of a 0.7 mM aqueous solution of 1,1,3,3-propane tetraphosphonic acid. The solution was swirled thoroughly and left to stand at room temperature for 15 min. The cylinders were rinsed with water as follows: 2 times with 10 ml, swirling at room temperature; 1 time with 10 ml, sonicating for 2 min at room temperature; 1 time with 10 ml, swirling at room temperature. The cylinders were dried in a desiccator over P2O5 and under vacuum (ca 20 mbar) for at least 3 hours.

`O=P(O)(O)C(CC(P(=O)(O)O)P(=O)(O)O)P(=O)(O)O` [1,1,3,3-propane tetraphosphonic acid] showed a Phosphorus/Metal ([1]; 0.7 mM) of 0.12, a Phosphorus/Metal ([1]; 2.5 mM) of 0.12 and a Phosphorus/Metal ([1]; 5 mM) of 0.11. The Phosphorus/Metal ([1]; 10 mM) was 0.12, the Phosphorus/Metal ([2]; Phosphonic acid 5 min, sonicated 65° C.) was 0.24^b and the Phosphorus/Metal ([2]; Phosphonic acid 10 min, sonicated 65° C.) was 0.28^b. The Phosphorus/Metal ([2]; Phosphonic acid 30 min, sonicated 65° C.) was 0.30^b, the Phosphorus/Metal ([2]; Phosphonic acid 60 min, sonicated 65° C.) was 0.28^b and the Phosphorus/Metal ([2]; all steps sonicated at 40° C., 15 min) was 0.22^b. The Phosphorus/Metal ([2]; all steps sonicated at 50° C., 15 min) was 0.26^b, the Phosphorus/Metal ([2]; all steps sonicated at 60° C., 15 min) was 0.25^b and the Phosphorus/Metal ([2]; all steps sonicated at 70° C., 15 min) was 0.25^b. For the same molecule, the Phosphorus/Metal ([2]; all steps sonicated at 80° C., 15 min) was 0.27^b, the Phosphorus/Metal ([2]; all steps sonicated at 90° C., 15 min) was 0.27^b and the Phosphorus/Metal ([2]; pre-treatment Deconex 15PF-x 5 min, sonicated 65° C. 15 min) was 0.36^b. The Phosphorus/Metal ([2]; pre-treatment Deconex 15PF-x 15 min, sonicated 65° C. 15 min) was 0.32^b and the Phosphorus/Metal ([2]; pre-treatment Deconex 15PF-x 30 min, sonicated 65° C. 15 min) was 0.32^b.
